Results from patent US20080248097A1, “POLYMERIC MICELLES FOR COMBINATION DRUG DELIVERY” (priority 2007, published 2008).
Like-named read-outs stand apart in the source and are kept apart here.

Tests used:
[1] = test system: human small cell lung cancer SBC-3 cells; experiment: Confocal laser scanning microscopy of intracellular localization; assay type: cell-based; conditions: 10 μg mL−1
Method: FIG. 4 illustrates CLSM images of human small cell lung cancer SBC-3 cells incubated with ADR and PEG-p(Asp-Hyd-ADR) micelles (10 μg mL^−1). […] A series of optical sections was stacked (Z-stacked) by moving the focal plane of the instrument step-by-step through the depth of the cell.

[2] = Biodistribution and plasma levels in tumor-bearing mice; conditions: after 10 hours; 10 mg/kg, CDF1 mice
Method: (§1) The CDF1 mice (female, n=6), when the tumor volume reached about 100 mm^3, were injected with DOX or the micelles in a volume of 0.1 mL/10 g body weight for the experiments. The dose was either 10 mg/kg for DOX or the micelles (DOX equivalent).

[3] = test system: tumor; conditions: mouse, in vivo
Method: (§2) Cancer treatment efficacy of the pH-sensitive micelles was evaluated by comparing the therapeutic windows of small molecule drugs (doxorubicin) and the doxorubicin-conjugated micelles.
as §1
(§3) Cancer treatment efficacy of the pH-sensitive micelles was evaluated by comparing the therapeutic windows of small molecule drugs (doxorubicin) and the doxorubicin-conjugated micelles. Therapeutic windows were determined based on the ratio of ED50 to TD.

[4] = DMEM with 10% fetal bovine serum, 24 hours, 100 μg mL−1 ADR equivalent, excitation 485 nm
[5] = test system: tumor; experiment: Cancer treatment efficacy and toxicity in tumor-bearing mice (Table 2, therapeutic window); conditions: for Complete Cure / Toxic Death: mice; for Complete Cure: cured/animals; for Toxic Death: deaths/animals
Method: as §2, §1, §3

[6] = test system: human small cell lung cancer SBC-3 cells; conditions: different ADR concentrations and exposure times
Description: As a system releasing bioactive molecules, the micelles are required to maintain the ability of the loaded ADR to suppresses cell growth by binding with DNA strands in the cell nucleus.

Compound: COc1cccc2c1C(=O)c1c(O)c3c(c(O)c1C2=O)C[C@@](O)(C(=O)CO)C[C@@H]3O[C@H]1C[C@H](N)[C@H](O)[C@H](C)O1 [DOX, doxorubicin]
- fluorescence intensity in cells ([1]; after 1 hour exposure): increase in fluorescence intensity
- intracellular localization of fluorescence ([1]; after 24 hours incubation): only accumulated in cell nuclei
- dose remained in the blood [2]: almost none
- Weight change on day 30 (%) ([3]; 5 mg/kg): −13.35 ± 0.59%
- Weight change on day 30 (%) ([3]; 10 mg/kg): −16.84 ± 1.26%
- fluorescence intensity at 590 nm [4]: intense fluorescence
- Complete Cure ([5]; dose 5 mg/kg): 0/6
- Toxic Death ([5]; dose 5 mg/kg): 0/6
- Complete Cure ([5]; dose 10 mg/kg): 1/6
- Toxic Death ([5]; dose 10 mg/kg): 0/6

Compound: poly(ethylene glycol)poly(aspartate-hydrazone-adriamycin) [DOX-Micelle]
- growth-inhibition effect [6]: gradually approach those of free ADR
- fluorescence intensity in cells ([1]; after 1 hour exposure): no such increase was detected
- fluorescence intensity in cells ([1]; after 24 hours incubation): considerable fluorescence change
- intracellular localization of fluorescence ([1]; after 24 hours incubation): dot-shaped within the cytoplasm
- therapeutic window compared to standard doxorubicin administration ([5]; based on treatment-to-control (T/C) ratio, ratio of ED50 to TD): broader therapeutic window
- Complete Cure ([5]; dose 5 mg/kg): 0/6
- Complete Cure ([5]; dose 10 mg/kg): 0/6
- Complete Cure ([5]; dose 20 mg/kg): 2/6
- Complete Cure ([5]; dose 40 mg/kg): 3/6
